Experimental findings from patent publication US10030020B2, “Spirocycle compounds and methods of making and using same” (Abide Therapeutics, Inc., priority 2016, dated 2018) are described below.

In general, IC50 refers to the point on the concentration scale where inhibition reaches its midpoint. The low end stands for greater potency, the high end for weaker potency.

Assay [1] concerns the target T1, MAGL (Mus musculus (Mouse), UniProt O35678). In words: In vitro competitive activity-based protein profiling (mouse brain membrane fraction or cell lysates), MAGL band. The assay is classed as biochemical. Particulars: mouse proteome; for inhibition at 1 µM: read-out: MAGL % Inh 1 μM (mouse); for IC50: competitive ABPP. Here is the method: In Vitro Competitive Activity-Based Protein Profiling.
Proteomes (mouse brain membrane fraction or cell lysates) (50 μL, 1.0 mg/mL total protein concentration) were preincubated with varying concentrations of inhibitors at 37° C. After 30 min, FP—Rh (1.0 μL, 50 μM in DMSO) was added and the mixture was incubated for another 30 min at 37° C. Reactions were quenched with SDS loading buffer (50 μL-4×) and run on SDS-PAGE.

For assay [2], the target named is T2, FAAH (Mus musculus (Mouse), UniProt O08914). In words: Mouse brain proteomes from inhibitor treated mice (oral gavage, sacrificed 4 h after administration, ABPP analysis), FAAH. The assay is classed as in vivo, mouse (C57Bl/6J). Particulars: 5 mg/kg oral gavage. A digest of the protocol: (§1)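 Read-out is % inhibition at 5 mg/kg in brain proteomes profiled by activity-based protein profiling. Inhibitors were dosed orally to wild-type C57Bl/6J mice, with sacrifice at 4 h.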
T2 sequence (O08914 whole entry): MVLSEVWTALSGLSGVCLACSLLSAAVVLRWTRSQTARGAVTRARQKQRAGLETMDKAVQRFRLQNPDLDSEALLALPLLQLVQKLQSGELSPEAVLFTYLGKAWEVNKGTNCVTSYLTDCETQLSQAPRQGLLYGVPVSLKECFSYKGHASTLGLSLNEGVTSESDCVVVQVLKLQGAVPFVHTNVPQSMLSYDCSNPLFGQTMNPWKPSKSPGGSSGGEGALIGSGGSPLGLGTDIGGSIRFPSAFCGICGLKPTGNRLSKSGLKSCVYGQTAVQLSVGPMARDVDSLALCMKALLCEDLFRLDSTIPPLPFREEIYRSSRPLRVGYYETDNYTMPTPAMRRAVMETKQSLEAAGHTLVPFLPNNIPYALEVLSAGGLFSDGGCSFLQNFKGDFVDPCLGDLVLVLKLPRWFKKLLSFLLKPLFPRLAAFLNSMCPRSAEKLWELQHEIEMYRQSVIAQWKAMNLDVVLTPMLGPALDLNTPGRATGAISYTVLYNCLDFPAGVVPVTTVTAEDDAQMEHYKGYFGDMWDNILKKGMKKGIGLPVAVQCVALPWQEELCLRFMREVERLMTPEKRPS

The target of assay [3] is T3, ABHD6 (Mus musculus (Mouse), UniProt Q8R2Y0). Kind of assay: In vitro competitive activity-based protein profiling (mouse brain membrane fraction or cell lysates), ABHD6 band. As to conditions: mouse proteome; for inhibition at 1 µM: read-out: ABHD6 % Inh 1 μM (mouse); for IC50: competitive ABPP. The assay is classed as biochemical. Summed up: (§2)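 Residual hydrolase activity was measured as gel band fluorescence after FP-Rh labelling (30 min, 37° C) of proteomes pretreated 30 min at 37° C with inhibitor.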
T3 sequence (Q8R2Y0 whole entry): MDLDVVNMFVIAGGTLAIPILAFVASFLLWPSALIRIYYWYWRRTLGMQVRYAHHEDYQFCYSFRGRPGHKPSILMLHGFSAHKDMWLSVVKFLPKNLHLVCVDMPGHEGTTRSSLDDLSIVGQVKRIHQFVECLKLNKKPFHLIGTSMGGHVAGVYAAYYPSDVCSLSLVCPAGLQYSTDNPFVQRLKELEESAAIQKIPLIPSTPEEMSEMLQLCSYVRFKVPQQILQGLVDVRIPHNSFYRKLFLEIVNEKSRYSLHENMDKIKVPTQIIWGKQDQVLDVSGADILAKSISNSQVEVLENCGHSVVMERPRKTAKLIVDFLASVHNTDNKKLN

The target of assay [4] is T1, MAGL. In words: Mouse brain proteomes from inhibitor treated mice (oral gavage, sacrificed 4 h after administration, ABPP analysis). The assay is classed as in vivo, mouse (C57Bl/6J). Particulars: 5 mg/kg oral gavage. A digest of the protocol:
as §1

The target in assay [5] is T2, FAAH. Kind of assay: In vitro competitive activity-based protein profiling (mouse brain membrane fraction or cell lysates), FAAH band. As to conditions: mouse proteome; for inhibition at 1 µM: read-out: FAAH % Inh 1 μM (mouse); for IC50: competitive ABPP. The assay is classed as biochemical. Summed up:
as §2

Assay [6] addresses T3, ABHD6. Kind of assay: Mouse brain proteomes from inhibitor treated mice (oral gavage, sacrificed 4 h after administration, ABPP analysis), ABHD6. Particulars: 5 mg/kg oral gavage. The assay is classed as in vivo, mouse (C57Bl/6J). A digest of the protocol: as §1

T1 sequence (O35678 whole entry): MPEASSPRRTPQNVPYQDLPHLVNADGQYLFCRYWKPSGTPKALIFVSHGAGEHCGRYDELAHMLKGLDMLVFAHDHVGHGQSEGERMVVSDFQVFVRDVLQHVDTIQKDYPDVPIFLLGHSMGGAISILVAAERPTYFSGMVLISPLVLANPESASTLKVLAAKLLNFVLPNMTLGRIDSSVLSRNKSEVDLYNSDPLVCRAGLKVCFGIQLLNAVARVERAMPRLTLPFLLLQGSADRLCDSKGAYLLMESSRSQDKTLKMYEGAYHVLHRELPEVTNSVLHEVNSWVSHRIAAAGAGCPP

As to `O=C(OC(C(F)(F)F)C(F)(F)F)N1CCC2(CCCN2Cc2ccc(Cl)cc2)CC1` [Example 62, 1,1,1,3,3,3-Hexafluoropropan-2-yl 1-(4-chlorobenzyl)-1,8-diazaspiro[4.5]decane-8-carboxylate], the inhibition at 1 µM in assay [1] is more than 75%; in assay [3], less than 25%; in assay [5] it was less than 25%. Moreover, the IC50 in assay [1] is less than 100 nM; in assay [3] it was more than 1000 nM; in assay [5], more than 1000 nM. In addition, the “FAAH % Inh 5 mg/kg (mouse)” value in assay [2] was “## (## is equal to or greater than 25% but less than 75%)”. Besides, in assay [4], the “MAGL % Inh 5 mg/kg (mouse)” value is reported as “### (### is ≥75%)”. In addition, in assay [6], the “ABHD6 % Inh 5 mg/kg (mouse)” value is recorded as “## (## is equal to or greater than 25% but less than 75%)”.
Turning to `CS(=O)(=O)NC1CCN(c2cc(Cl)ccc2CN2CCCC23CCN(C(=O)OC(C(F)(F)F)C(F)(F)F)CC3)CC1` [Example 105, 1,1,1,3,3,3-Hexafluoropropan-2-yl 1-(4-chloro-2-(4-(methylsulfonamido)piperidin-1-yl)benzyl)-1,8-diazaspiro[4.5]decane-8-carboxylate], the inhibition at 1 µM in assay [1] is more than 75%; in assay [3], less than 25%; in assay [5] it was less than 25%. In addition, the IC50 was less than 100 nM in assay [1], more than 1000 nM in assay [3] and more than 1000 nM in assay [5]. For the same compound, the “FAAH % Inh 5 mg/kg (mouse)” value in assay [2] is recorded as “# (# is <25%)”. The “MAGL % Inh 5 mg/kg (mouse)” value in assay [4] is reported as “# (# is <25%)”. Besides, the “ABHD6 % Inh 5 mg/kg (mouse)” value in assay [6] was “# (# is <25%)”.
Consider `O=C(OC(C(F)(F)F)C(F)(F)F)N1CCC2(CCCN2Cc2cc(Oc3nc4ccccc4s3)cc(C(F)(F)F)c2)CC1` [Example 172, 1,1,1,3,3,3-Hexafluoropropan-2-yl 1-(3-(benzo[d]thiazol-2-yloxy)-5-(trifluoromethyl)benzyl)-1,8-diazaspiro[4.5]decane-8-carboxylate], for which the inhibition at 1 µM was more than 75% in assay [1], less than 25% in assay [3] and less than 25% in assay [5]. Besides, the IC50 was less than 100 nM in assay [1], more than 1000 nM in assay [3] and more than 1000 nM in assay [5]. Moreover, the “FAAH % Inh 5 mg/kg (mouse)” value in assay [2] is reported as “# (# is <25%)”. The “MAGL % Inh 5 mg/kg (mouse)” value in assay [4] is recorded as “# (# is <25%)”. Moreover, in assay [6], the “ABHD6 % Inh 5 mg/kg (mouse)” value is given as “# (# is <25%)”.
With `O=C(OC(C(F)(F)F)C(F)(F)F)N1CCC2(CCCN2Cc2ccc(C(F)(F)F)cc2Oc2cccnc2)CC1` [Example 173, 1,1,1,3,3,3-Hexafluoropropan-2-yl 1-(2-(pyridin-3-yloxy)-4-(trifluoromethyl)benzyl)-1,8-diazaspiro[4.5]decane-8-carboxylate], the results for the inhibition at 1 µM in assay [1], in assay [3] and in assay [5] were more than 75%, 25 to 75% and less than 25%, respectively. Moreover, the IC50 is less than 100 nM in assay [1], more than 1000 nM in assay [3] and more than 1000 nM in assay [5]. In addition, the “FAAH % Inh 5 mg/kg (mouse)” value in assay [2] is “# (# is <25%)”. For the same compound, the “MAGL % Inh 5 mg/kg (mouse)” value in assay [4] was “## (## is equal to or greater than 25% but less than 75%)”. In assay [6], the “ABHD6 % Inh 5 mg/kg (mouse)” value was “# (# is <25%)”.
Take `CCOc1ccc(CN2CCCC23CCN(C(=O)OC(C(F)(F)F)C(F)(F)F)CC3)cc1` [Example 4, 1,1,1,3,3,3-Hexafluoropropan-2-yl 1-(4-ethoxybenzyl)-1,8-diazaspiro[4.5]decane-8-carboxylate]: the figures for the inhibition at 1 µM in assay [1], in assay [3] and in assay [5] were more than 75%, less than 25% and less than 25%, respectively. For the same compound, the IC50 in assay [1] was 100 to 1000 nM; in assay [3], more than 1000 nM; in assay [5] it was more than 1000 nM. The “FAAH % Inh 5 mg/kg (mouse)” value in assay [2] is listed as “# (# is <25%)”. For the same compound, the “MAGL % Inh 5 mg/kg (mouse)” value in assay [4] is reported as “### (### is ≥75%)”. Besides, the “ABHD6 % Inh 5 mg/kg (mouse)” value in assay [6] is “# (# is <25%)”.
`O=C(OC(C(F)(F)F)C(F)(F)F)N1CCC2(CCCN2Cc2cc(OC3CCS(=O)(=O)CC3)cc(C(F)(F)F)c2)CC1` [Example 176, 1,1,1,3,3,3-Hexafluoropropan-2-yl 1-(3-((1,1-dioxidotetrahydro-2H-thiopyran-4-yl)oxy)-5-(trifluoromethyl)benzyl)-1,8-diazaspiro[4.5]decane-8-carboxylate]: the inhibition at 1 µM in assay [1] was more than 75%; in assay [3], less than 25%; in assay [5], less than 25%. Moreover, the values for the IC50 in assay [1], in assay [3] and in assay [5] were less than 100 nM, more than 1000 nM and more than 1000 nM, respectively. In addition, the “FAAH % Inh 5 mg/kg (mouse)” value in assay [2] is listed as “# (# is <25%)”. The “MAGL % Inh 5 mg/kg (mouse)” value in assay [4] was “## (## is equal to or greater than 25% but less than 75%)”. In assay [6], the “ABHD6 % Inh 5 mg/kg (mouse)” value is recorded as “# (# is <25%)”.
With `O=C(OC(C(F)(F)F)C(F)(F)F)N1CCC2(CCCN2Cc2ccc(Cl)cc2N2CCC(F)(F)CC2)CC1` [Example 101, 1,1,1,3,3,3-Hexafluoropropan-2-yl 1-(4-chloro-2-(4,4-difluoropiperidin-1-yl)benzyl)-1,8-diazaspiro[4.5]decane-8-carboxylate], the inhibition at 1 µM in assay [1] is more than 75%; in assay [3], less than 25%; in assay [5] it was less than 25%. Further, the IC50 in assay [1] is less than 100 nM; in assay [3], more than 1000 nM; in assay [5], more than 1000 nM. The “FAAH % Inh 5 mg/kg (mouse)” value in assay [2] is “# (# is <25%)”. In assay [4], the “MAGL % Inh 5 mg/kg (mouse)” value was “### (### is ≥75%)”. Besides, the “ABHD6 % Inh 5 mg/kg (mouse)” value in assay [6] is “# (# is <25%)”.
As to `O=C(OC(C(F)(F)F)C(F)(F)F)N1CCC2(CCCN2Cc2cc(N3CCC(F)CC3)cc(C(F)(F)F)c2)CC1` [Example 45, 1,1,1,3,3,3-Hexafluoropropan-2-yl 1-(3-(4-fluoropiperidin-1-yl)-5-(trifluoromethyl)benzyl)-1,8-diazaspiro[4.5]decane-8-carboxylate], the IC50 in assay [1] is less than 100 nM; in assay [3], more than 1000 nM; in assay [5], more than 1000 nM. Further, in assay [2], the “FAAH % Inh 5 mg/kg (mouse)” value was “# (# is <25%)”. The “MAGL % Inh 5 mg/kg (mouse)” value in assay [4] is on record as “## (## is equal to or greater than 25% but less than 75%)”. For the same compound, the “ABHD6 % Inh 5 mg/kg (mouse)” value in assay [6] was “# (# is <25%)”.
Regarding `O=C(OC(C(F)(F)F)C(F)(F)F)N1CCC2(CCCN2Cc2cc(N3CCS(=O)(=O)CC3)cc(C(F)(F)F)c2)CC1` [Example 42, 1,1,1,3,3,3-Hexafluoropropan-2-yl 1-(3-(1,1-dioxidothiomorpholino)-5-(trifluoromethyl)benzyl)-1,8-diazaspiro[4.5]decane-8-carboxylate], the inhibition at 1 µM in assay [1] is more than 75%; in assay [3], less than 25%; in assay [5] it was less than 25%. Moreover, the IC50 was less than 100 nM in assay [1], more than 1000 nM in assay [3] and more than 1000 nM in assay [5]. Besides, the “FAAH % Inh 5 mg/kg (mouse)” value in assay [2] was “# (# is <25%)”. Besides, the “MAGL % Inh 5 mg/kg (mouse)” value in assay [4] is listed as “### (### is ≥75%)”. The “ABHD6 % Inh 5 mg/kg (mouse)” value in assay [6] is recorded as “# (# is <25%)”.
Consider `O=C(OC(C(F)(F)F)C(F)(F)F)N1CCC2(CCCN2Cc2ccc(C(F)(F)F)cc2N2CCOCC2)CC1` [Example 67, 1,1,1,3,3,3-Hexafluoropropan-2-yl 1-(2-morpholino-4-(trifluoromethyl)benzyl)-1,8-diazaspiro[4.5]decane-8-carboxylate], for which the inhibition at 1 µM in assay [1] was more than 75%; in assay [3] it was less than 25%; in assay [5], less than 25%. In addition, the IC50 in assay [1] was less than 100 nM; in assay [3] it was more than 1000 nM; in assay [5], more than 1000 nM. Also, the “FAAH % Inh 5 mg/kg (mouse)” value in assay [2] was “# (# is <25%)”. Further, the “MAGL % Inh 5 mg/kg (mouse)” value in assay [4] is reported as “### (### is ≥75%)”. In assay [6], the “ABHD6 % Inh 5 mg/kg (mouse)” value was “# (# is <25%)”.
